Reference: PMC11187217, “Anti-adhesive, anti-biofilm and fungicidal action of newly synthesized gemini quaternary ammonium salts” (Scientific Reports, 2024)
Read-outs that look alike come from different tables or passages of the source. Marks after values point to notes of the source that are not given here.

Legend:
[1] = test system: Saccharomyces cerevisiae Σ1278b ATCC 42800; assay: MIC/MFC, microdilution method (modified CLSI M27); assay type: cell-based; details: S. cerevisiae Σ1278b, 28 °C; for MIC / Minimum inhibitory concentration (MIC): 90% growth inhibition, YPG; for MIC: read-out: Minimum inhibitory concentration (MIC); for MFC / Minimum fungicidal concentration (MFC*): no growth on solid YPG; for MFC: read-out: Minimum fungicidal concentration (MFC*)
Procedure: Minimum inhibitory concentration (MIC) and minimum fungicidal concentration (MFC) values were determined based on the modified CLSI M27 protocol. The study was performed using the microdilution method on sterile 96-well titration plates. The S. cerevisiae Σ1278b ATCC 42800, S. cerevisiae BY4741 ATCC 201388, C. albicans ATCC 10231, C. albicans 595/20 and R. mucilaginosa ATCC 4056 were incubated for 18 h at 28 °C (without shaking), then centrifuged (1000 rcf, 5 min), and the obtained pellet was suspended in fresh YPG medium and optical density (OD) = 0.25–0.3 was determined at a wavelength (λ) of 590 nm. Next, 10 μl of selected compounds at appropriate final concentrations (5–1280 μM) were spotted into the wells of the titration plate. Then, 80 μl of YPG medium and 10 μl of culture with a fixed OD were added. All tests were performed in triplicate. The plate was incubated at 28 °C for 24 h. The YPG medium was a negative control, while the prepared culture not treated with compounds was a positive control. […] The minimum inhibitory concentration was determined at 90% growth inhibition.
In order to determine the MFC of selected gemini surfactants, 10 μl of culture was transferred to solid YPG medium from the wells of the titration plate in which MIC was observed and from wells with the compound with higher concentrations. The spotted suspensions were incubated at 28 °C for 24 h. After incubation, inhibition of the growth of microorganisms was observed.

C. albicans ATCC 10231 [2] = assay: Filamentation of Candida albicans (DIC microscopy); assay type: cell-based; details: 24 h incubation, ½ MIC, 37 °C
Procedure: The culture of C. albicans ATCC 10231 was incubated in YPG medium at 28 °C for 18 h. Then the culture was centrifuged (1000 rcf, 5 min), and the resulting pellet was suspended in fresh YPG medium to obtain a culture with OD = 0.6. […] The formation of filaments was observed using a differential interference contrast microscope (Olympus BX50 DIC Microscope) after 12 and 24 h of exposure to selected surfactants on C. albicans cells. The control was a culture not exposed to gemini QAS. The experiment was performed based on a modification of the protocol of Obłąk et al. ^46.

[3] = test system: S. cerevisiae Σ1278b ATCC 42800; assay: Cytotoxicity, alamarBlue (resazurin) assay on yeast cells; assay type: cell-based, Saccharomyces cerevisiae; details: ¼ and ½ MIC
Procedure: To determine the cytotoxicity of the tested gemini QAS on yeast cells, an experiment was performed using the alamarBlue colorimetric assay to determine the metabolic activity of cells, using the modified alamarBlue Cell Viability Assay Reagent method. Enzymes of the electron transport system reduce the blue resazurin solution to resorufin, which is fluorescent pink.
The yeast culture S. cerevisiae Σ1278b was incubated at 28 °C for 16 h with shaking (100 rpm), centrifuged (1000 rcf, 5 min) and the optical density was obtained, OD = 1.0, λ = 590 nm. On a 96-well titration plate we spotted 160 μl of YPG medium, 20 μl of yeast culture and the tested gemini QAS at final concentrations of ½ and ¼ MIC. The negative control was YPG medium with resazurin solution, and the positive control was resazurin solution with yeast culture. The plates were incubated at 28 °C for 12 h. Then, 20 μl of resazurin solution (alamarBlue) was added to the wells and the plate was incubated for 4 h in the dark. After incubation, the absorbance was measured at λ = 570 nm and λ = 600 nm and the color change of the wells from blue to pink was observed. The experiment was performed in 3 repetitions.

C. albicans ATCC 10231 [4] = assay: Adhesion of C. albicans to silicone surface; assay type: cell-based, Candida albicans
Procedure: The effect of gemini QAS on the adhesion of C. albicans ATCC 10231 was determined using a modification of the method of Obłąk et al.. […] After incubation, the culture was centrifuged (1000 rcf, 5 min), and the resulting pellet was suspended in PBS (pH 7.4) until OD = 0.8 (λ = 590 nm). • In the case of testing the polystyrene surface, 100 µl of tested gemini QAS at concentrations of 20–1280 µM was added to the wells of a 96-well titration plate, incubated for 2 h at 37 °C, rinsed with sterile distilled water, and then spotted with 100 µl of the obtained culture and incubated at 37 °C for 4 h. After this time, the culture was removed, the plates were rinsed with sterile distilled water and placed in an oven (60 °C, 20 min). Then, crystal violet (0.1%) was added to the wells of the titration plate, stained for 5 min and rinsed with sterile distilled water until all traces of violet were removed from the rinsed water. Then the washing mixture (1% SDS, 50 mmol HCl, 100% isopropanol) was added. The absorbance of the samples was read using a spectrophotometer (BioTek 800 TS Absorbance Reader) at λ = 590 nm. The positive control was the culture wells to which the tested gemini QAS were not added, and the negative control was the medium. The experiment was performed in 3 repetitions. • When the tested surface was stainless steel (round washers Ø 0.4 cm), silicone (0.5 cm long fragments of Foley catheters) or glass (1 cm^2 coverslips), the tested materials were incubated for 2 h at 37 °C with shaking (100 rpm) in the presence of the tested gemini QAS at concentrations of 80–640 µM. Then, the materials were rinsed with sterile distilled water, transferred to tubes with culture and incubated for 4 h at 37 °C with shaking (100 rpm). After incubation, the materials were rinsed with sterile distilled water. […] Next, the washing mixture (1% SDS, 50 mmol HCl, 100% isopropanol) was added and the absorbance of the samples was read using a spectrophotometer (BioTek 800 TS Absorbance Reader) at λ = 590 nm. […] After this time, the colonies growing on the plates were counted. […]

[5] = concentration not stated (tested 80–640 µM)
[6] = Saccharomyces cerevisiae, ATCC42800, 24 h

Row | SMILES | MIC ([1]; 24 h) [µM] | MFC ([1]; 24 h) [µM] | Effect on production of filaments by C. albicans (C. albicans ATCC 10231 [2]; listed as Dibromides with 12-carbon hydrophobic chains) | Cytotoxic potential towards mitochondrial metabolism of S. cerevisiae Σ1278b cells [3] | Reduction of adhesion of C. albicans cells to silicone (C. albicans ATCC 10231 [4]; [5]) | Effect on production of filaments by C. albicans (C. albicans ATCC 10231 [2]) | MIC [1, 6] [µM] | MFC [1, 6] [µM] | Effect on production of filaments by C. albicans (C. albicans ATCC 10231 [2]; listed as dibromides with 16-carbon alkyl chains) | Minimum inhibitory concentration (MIC) ([1]; 24 h) | Minimum fungicidal concentration (MFC*) ([1]; 24 h) | Reduction of adhesion of C. albicans cells to silicone (C. albicans ATCC 10231 [4]; 640 µM)
1 | CCCCCCCCCCCC(=O)N(CCCN(CCC[N+](C)(C)C)C(=O)CCCCCCCCCCC)CCC[N+](C)(C)C [2xC12BrG3] | 240 | 320 | completely inhibits filament formation and cell growth | did not have cytotoxic potential |  |  |  |  |  |  |  | 
2 | CCCCCCCCCCCC(=O)N(CCCN(CCC[N+](C)(C)C)C(=O)CCCCCCCCCCC)CCC[N+](C)(C)C [2xC12MeCO3G3, dimethyl{{3-[N-(3-{N-[3-(dimethylammonium)propyl]dodecylamido}propyl}dodecylamido}propyl}}ammonium dimethylcarbonate] | 640 | > 1280 |  | did not have cytotoxic potential | 80–90% | almost completely inhibited the production of filaments |  |  |  |  |  | 
3 | CCCCCCCCCCCCCC(=O)N(CCCN(CCC[N+](C)(C)C)C(=O)CCCCCCCCCCCCC)CCC[N+](C)(C)C [2xC14BrG3] |  |  |  | did not have cytotoxic potential |  | had little effect on the formation of filaments | 360 | 640 |  |  |  | 
4 | CCCCCCCCCCCCCCCC(=O)N(CCCN(CCC[N+](C)(C)C)C(=O)CCCCCCCCCCCCCCC)CCC[N+](C)(C)C [2xC16BrG3] |  |  |  | did not have cytotoxic potential |  |  | > 1280 | > 1280 | largely prevented the formation of filaments |  |  | 
5 | CCCCCCCCCCCCCCCC(=O)N(CCCN(CCC[N+](C)(C)C)C(=O)CCCCCCCCCCCCCCC)CCC[N+](C)(C)C [2xC16LaG3] |  |  |  | did not have cytotoxic potential |  | strongly prevented the formation of filaments |  |  |  | > 1280 > 1280* µM | > 1280 > 1280* µM | completely reduced the adhesion
6 | CCCCCCCCCCCCCCCC(=O)N(CCCN(CCC[N+](C)(C)C)C(=O)CCCCCCCCCCCCCCC)CCC[N+](C)(C)C [2xC16MeCO3G3, dimethyl{{3-[N-(3-{N-[3-(dimethylammonium)propyl]hexadecylamido}propyl}hexadecylamido}propyl}}ammonium dimethylcarbonate] |  |  |  | did not have cytotoxic potential | 80–90% | significantly reduced their number |  |  |  | > 1280 > 1280* µM | > 1280 > 1280* µM | 
